Consider 12 compounds from patent US20240293587A1, “CXCR4-TARGETED DIAGNOSTIC AND THERAPEUTIC AGENTS WITH REDUCED SPECIES SELECTIVITY” (TECHNISCHE UNIVERSITÄT MÜNCHEN, priority 2018, published 2024).

For orientation: IC50 means the concentration that inhibits the measured activity by half. Low readings indicate greater potency, high ones weaker potency.

Starred links: 1 amine or outer side, 2 acyl side, 3 side chain; linkers in the order of their positions; H or OH if unused. Non-standard residues stand in square brackets, D forms with d. Residues, ends and D or L forms follow the SMILES beside them. Groups on a side chain read outwards from the residue. *: point of attachment. dAla(N-(6-guanidinohexyl)) = C[C@@H](NCCCCCCNC(=N)N)C(=O)O; DOTA = O=C(O)CN1CCN(CC(=O)O)CCN(CC(=O)*)CCN(CC(=O)O)CC1; X2 = CC(=O)NCCCCNC(=N)NCCCCCCN([C@H](C)C(=O)[*:2])[*:1]; 2Nal = N[C@@H](Cc1ccc2ccccc2c1)C(=O)O; dNMeOrn = CN[C@H](CCCN)C(=O)O; 4Amb = NCc1ccc(C(=O)O)cc1

The target of test [1] is T1, human CXCR4 (hCXCR4) (Homo sapiens (Human), UniProt P61073). The test can be described thus: Competition binding on Jurkat cells with [125I]FC-131 as radioligand. The settings on record: [125I]FC-131 radioligand, mean ± SD. The procedure: (§1) For the determination of hCXCR4-affinity, competition binding experiments were performed using Jurkat cells and [^125I]FC131 or [^125I]R1 as radioligand. Affinity to mCXCR4 and rCXCR4 was determined using Eμ-Myc1080 mouse B-cell lyphoma cells ^57 or C6 rat glioma cells, respectively, and [^125I]R1 as the radioligand.
T1 sequence (P61073 whole entry): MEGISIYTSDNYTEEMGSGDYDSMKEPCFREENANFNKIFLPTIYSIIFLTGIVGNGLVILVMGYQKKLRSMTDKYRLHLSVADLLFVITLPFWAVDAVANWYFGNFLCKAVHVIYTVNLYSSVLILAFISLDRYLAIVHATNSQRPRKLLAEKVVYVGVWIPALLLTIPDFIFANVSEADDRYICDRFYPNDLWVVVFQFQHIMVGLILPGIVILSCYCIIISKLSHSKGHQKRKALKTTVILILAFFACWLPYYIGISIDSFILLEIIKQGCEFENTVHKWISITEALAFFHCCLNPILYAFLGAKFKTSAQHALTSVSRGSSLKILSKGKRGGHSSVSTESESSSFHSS
(§2) For IC50 determination using Jurkat or Eμ-Myc1080 cells, samples containing 2×10^5 cells (or 4×10^5 cells; exact cell number used in the respective evaluations is given in the results section) in Hank's balanced salt solution (HBSS)/1% Bovine Serum Albumin (BSA) were incubated with 100.000 cpm of the respective radioligand (approx. 0.1 nM) in the presence of increasing concentrations (10^−11 to 10^−5 M) of the respective peptide of interest (n=3 per concentration). The total sample volume was 250 μL. After incubation at room temperature (RT) for 120 min with gentle agitation (200 mot/min), the tubes were centrifuged (5 min, 450g, Megafuge 1.0, Heraeus Thermo Scientific) and the supernatant was carefully removed. After washing twice with 400 μL of cold HBSS, the amount of cell-bound radioligand was quantified using a […]-counter.
(§3) IC50 values were calculated using PRISM 6 software (Graph Pad Software, San Diego, CA) using a three-parameter sigmoidal dose response curve fit.

In a further test the target is mouse CXCR4 (mCXCR4) (Mus musculus (Mouse), UniProt P70658). The test can be described thus: Competition binding on Eμ-Myc1080 mouse B-cell lymphoma cells with [125I]R1 as radioligand. The settings on record: 200.000 cells/sample, [125I]R1 radioligand, mean ± SD. Here is the method:
as §1, §2, §3

Test [2] has as its target T1, human CXCR4 (hCXCR4). The experiment in a line: Competition binding on Jurkat cells with [125I]R1 as radioligand. The settings on record: 200.000 cells/sample, [125I]R1 radioligand, mean ± SD. Here is the method: as §1, §2, §3
For a further test, the target named is murine receptor (mCXCR4) (Mus musculus (Mouse), UniProt P70658). The settings on record: background statement; cited from earlier work.
Chain of murine receptor (mCXCR4) (P70658 whole entry): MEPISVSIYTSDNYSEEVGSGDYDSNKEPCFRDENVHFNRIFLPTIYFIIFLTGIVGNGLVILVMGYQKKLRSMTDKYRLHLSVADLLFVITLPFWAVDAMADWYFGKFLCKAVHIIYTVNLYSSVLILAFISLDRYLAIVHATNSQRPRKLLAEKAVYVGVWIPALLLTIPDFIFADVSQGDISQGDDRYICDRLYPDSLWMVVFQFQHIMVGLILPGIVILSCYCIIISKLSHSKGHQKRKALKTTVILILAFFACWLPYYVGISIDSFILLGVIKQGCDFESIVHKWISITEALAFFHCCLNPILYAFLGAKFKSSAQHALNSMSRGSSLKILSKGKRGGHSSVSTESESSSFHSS

Chain of mouse CXCR4 (mCXCR4) (P70658 whole entry): as above

The compound “cyclo[ya′(hexylguanidino)RNalc(-CH2—CO—NH—CH2-(m-aryl)-CH2—NH-^natLu-DOTA)] [Pc5c]” registered an IC50 on human CXCR4 (hCXCR4) [1] (400.000 cells/sample) of 51 ± 4 nM.
As to `C[C@@H]1C(=O)N[C@@H](CCCNC(=N)N)C(=O)N[C@@H](Cc2ccc3ccccc3c2)C(=O)NCC(=O)N[C@H](Cc2ccc(O)cc2)C(=O)N1CCCCCCNC(=N)NCCCCCCNC(=O)CCCCCN1/C(=C/C=C/C=C/C2=[N+](CCCCCC(=O)NCCCCCCNC(=N)NCCCCCCN3C(=O)[C@@H](Cc4ccc(O)cc4)NC(=O)CNC(=O)[C@H](Cc4ccc5ccccc5c4)NC(=O)[C@H](CCCNC(=N)N)NC(=O)[C@H]3C)c3ccc(S(=O)(=O)[O-])cc3C2(C)C)C(C)(C)c2cc(S(=O)(=O)O)ccc21` [P5f, Sulfo2-Cy5(Hex-CPCR4.3)2], the IC50 at mouse CXCR4 (mCXCR4) is 136 ± 26 nM; on human CXCR4 (hCXCR4) [2] it was 115 ± 39 nM.
Take `CC(=O)NCCCCNC(=N)NCCCCCCN1C(=O)[C@@H](Cc2ccc(O)cc2)NC(=O)CNC(=O)[C@H](Cc2ccc3ccccc3c2)NC(=O)[C@H](CCCNC(=N)N)NC(=O)[C@H]1C` [P3, c(y-(NHex-Gua-But-Ac)a-R-Nal-G)] (cyclo([dY][X2]R[2Nal]G)): the IC50 at human CXCR4 (hCXCR4) [1] (200.000 cells/sample) came out at 2.1 ± 0.5 nM.
On to `C[C@@H]1C(=O)N[C@@H](CCCNC(=N)N)C(=O)N[C@@H](Cc2ccc3ccccc3c2)C(=O)NCC(=O)N[C@H](Cc2ccc(O)cc2)C(=O)N1CCCCCCNC(=N)NCCCCCCNC(=O)CN1CCN(CC(=O)O)CCN(CC(=O)O)CCN(CC(=O)O)CC1` (natGa complex, metal not drawn) [P5c], for which the IC50 stood at 12.7 ± 4.6 nM on mouse CXCR4 (mCXCR4) and 13 ± 2 nM on human CXCR4 (hCXCR4) [2].
On to “cyclo[ya′(hexylguanidino)RNalc(-CH2—CO—NH—CH2-(m-aryl)-CH2—NH-^natCu-DOTA)] [Pc5d]”, for which the IC50 on human CXCR4 (hCXCR4) [1] (400.000 cells/sample) is 78 ± 5 nM.
As for `C[C@@H]1C(=O)N[C@@H](CCCNC(=N)N)C(=O)N[C@@H](Cc2ccc3ccccc3c2)C(=O)NCC(=O)N[C@H](Cc2ccc(O)cc2)C(=O)N1CCCCCCNC(=N)NCCCCCCNC(=O)CCCCC[N+]1=C(/C=C/C=C/C=C2/N(C)c3ccc(S(=O)(=O)O)cc3C2(C)C)C(C)(C)c2cc(S(=O)(=O)[O-])ccc21` [P5e, Sulfo2-Cy5-Hex-CPCR4.3], the half-inhibitory concentration (IC50) is 156 ± 7 nM on mouse CXCR4 (mCXCR4) and 156 ± 11 nM on human CXCR4 (hCXCR4) [2].
Turning to `C[C@@H]1C(=O)N[C@@H](CCCNC(=N)N)C(=O)N[C@@H](Cc2ccc3ccccc3c2)C(=O)NCC(=O)N[C@H](Cc2ccc(O)cc2)C(=O)N1CCCCCCNC(=N)NCCCCCCNC(=O)CCOCCOCCOCCOCCNC(=O)CCCCC[N+]1=C(/C=C/C=C/C=C2/N(C)c3ccc(S(=O)(=O)O)cc3C2(C)C)C(C)(C)c2cc(S(=O)(=O)[O-])ccc21` [P5g, Sulfo2-Cy5-PEG4-Hex-CPCR4.3], the IC50 was found to be 63 ± 23 nM at mouse CXCR4 (mCXCR4), 91 ± 49 nM at human CXCR4 (hCXCR4) [2] and 40 ± 5 nM on human CXCR4 (hCXCR4) [1] (200.000 cells/sample).
For the compound `CN1C(=O)[C@@H](Cc2ccc(O)cc2)NC(=O)CNC(=O)[C@H](Cc2ccc3ccccc3c2)NC(=O)[C@H](CCCN=C(N)N)NC(=O)[C@H]1CCCNC(=O)c1ccc(CNC(=O)CN2CCN(CC(=O)[O-])CCN(CC(=O)[O-])CCN(CC(=O)[O-])CC2)cc1.[68Ga+3]` [[^68Ga]pentixafor, cyclo(D-Tyr^1-D-[NMe]Orn^2(AMBS-DOTA)-Arg^3-Nal^4-Gly^5)] (cyclo([2Nal]G[dY][dNMeOrn]([4Amb-DOTA])R)), on murine receptor (mCXCR4), the “affinity to mCXCR4 (in words)” value is on record as “virtually no affinity”.
With “cyclo[ya′(hexyluanidino)RNalc(-CH2—CO—NH—CH2-(m-aryl)-CH2—NH-^natGa-DOTA)] [Pc5b]”, the IC50 on mouse CXCR4 (mCXCR4) came out at 63 ± 19 nM; on human CXCR4 (hCXCR4) [2] it was 64 ± 29 nM; at human CXCR4 (hCXCR4) [1] (400.000 cells/sample), 31 ± 3 nM.
On to `C[C@@H]1C(=O)N[C@@H](CCCNC(=N)N)C(=O)N[C@@H](Cc2ccc3ccccc3c2)C(=O)N[C@H](CS)C(=O)N[C@H](Cc2ccc(O)cc2)C(=O)N1CCCCCCNC(=N)N` [Pc0, Cyclo(ya′(hexylguanidino)Rnalc)] (cyclo([2Nal][dC][dY][dAla(N-(6-guanidinohexyl))]R)), for which the IC50 at human CXCR4 (hCXCR4) [1] (400.000 cells/sample) turned out to be 35 ± 2 nM.
On mouse CXCR4 (mCXCR4), `C[C@@H]1C(=O)N[C@@H](CCCNC(=N)N)C(=O)N[C@@H](Cc2ccc3ccccc3c2)C(=O)NCC(=O)N[C@H](Cc2ccc(O)cc2)C(=O)N1CCCCCCNC(=N)NCCCCCCNC(=O)CN1CCN(CC(=O)O)CCN(CC(=O)O)CCN(CC(=O)O)CC1` (natLu complex, metal not drawn) [P5d] came in with an IC50 of 17 ± 3.3 nM.
For “cyclo(D-3-iodo-Tyr^1-D-[NMe]Orn^2(AMBS-DOTA)-Arg^3-Nal^4-Gly^5) [[^177Lu/^90Y]pentixather]”, on murine receptor (mCXCR4), the “affinity to mCXCR4 (in words)” value is “virtually no affinity”.
